Results as given in paper PMC11412156 (Journal of medicinal chemistry, 2024).
Values joined by “and” are separate entries in the source; they are usually repeats but may differ in a detail not shown here. Equal values may be shown once.

Tests used:
MsEH = target: T1, MsEH (Mus musculus, UniProt P34914); assay: fluorescent-based sEH assay with PHOME as substrate; format: biochemical
T1 sequence (P34914 1-554): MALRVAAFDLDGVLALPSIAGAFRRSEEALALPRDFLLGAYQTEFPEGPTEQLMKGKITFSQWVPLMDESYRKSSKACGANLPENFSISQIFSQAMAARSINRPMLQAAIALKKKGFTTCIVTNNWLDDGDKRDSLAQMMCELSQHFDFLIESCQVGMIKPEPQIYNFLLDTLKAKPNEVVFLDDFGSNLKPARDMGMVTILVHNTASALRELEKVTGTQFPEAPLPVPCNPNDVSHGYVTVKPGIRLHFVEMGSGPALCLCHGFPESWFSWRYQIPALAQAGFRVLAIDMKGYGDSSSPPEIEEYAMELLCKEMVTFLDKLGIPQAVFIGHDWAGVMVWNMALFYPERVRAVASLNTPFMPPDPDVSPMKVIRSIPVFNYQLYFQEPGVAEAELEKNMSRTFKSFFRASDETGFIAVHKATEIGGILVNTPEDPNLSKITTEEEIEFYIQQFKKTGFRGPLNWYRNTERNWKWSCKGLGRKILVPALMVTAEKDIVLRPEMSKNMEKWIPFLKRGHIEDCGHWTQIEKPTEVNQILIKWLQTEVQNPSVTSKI

HDAC1 = HDAC1 (Homo sapiens, UniProt Q13547); assay: HDAC enzyme-based fluorogenic assay, HDAC1; format: biochemical
Sequence of HDAC1 (Q13547 whole entry): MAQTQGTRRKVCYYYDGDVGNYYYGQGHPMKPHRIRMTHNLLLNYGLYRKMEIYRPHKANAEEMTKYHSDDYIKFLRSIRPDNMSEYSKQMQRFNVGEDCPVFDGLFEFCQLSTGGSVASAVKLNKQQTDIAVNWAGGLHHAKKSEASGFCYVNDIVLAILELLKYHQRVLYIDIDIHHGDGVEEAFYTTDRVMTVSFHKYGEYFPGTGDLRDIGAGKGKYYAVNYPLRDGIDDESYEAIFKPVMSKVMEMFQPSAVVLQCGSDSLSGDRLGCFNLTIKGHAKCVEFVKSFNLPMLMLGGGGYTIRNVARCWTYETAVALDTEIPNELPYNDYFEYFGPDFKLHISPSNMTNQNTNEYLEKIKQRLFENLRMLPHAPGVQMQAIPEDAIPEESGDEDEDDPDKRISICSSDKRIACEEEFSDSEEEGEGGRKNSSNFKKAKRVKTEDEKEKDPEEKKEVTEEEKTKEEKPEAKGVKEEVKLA

HDAC2 = HDAC2 (Homo sapiens, UniProt Q92769); assay: HDAC enzyme-based fluorogenic assay, HDAC2; format: biochemical
Sequence of HDAC2 (Q92769 whole entry): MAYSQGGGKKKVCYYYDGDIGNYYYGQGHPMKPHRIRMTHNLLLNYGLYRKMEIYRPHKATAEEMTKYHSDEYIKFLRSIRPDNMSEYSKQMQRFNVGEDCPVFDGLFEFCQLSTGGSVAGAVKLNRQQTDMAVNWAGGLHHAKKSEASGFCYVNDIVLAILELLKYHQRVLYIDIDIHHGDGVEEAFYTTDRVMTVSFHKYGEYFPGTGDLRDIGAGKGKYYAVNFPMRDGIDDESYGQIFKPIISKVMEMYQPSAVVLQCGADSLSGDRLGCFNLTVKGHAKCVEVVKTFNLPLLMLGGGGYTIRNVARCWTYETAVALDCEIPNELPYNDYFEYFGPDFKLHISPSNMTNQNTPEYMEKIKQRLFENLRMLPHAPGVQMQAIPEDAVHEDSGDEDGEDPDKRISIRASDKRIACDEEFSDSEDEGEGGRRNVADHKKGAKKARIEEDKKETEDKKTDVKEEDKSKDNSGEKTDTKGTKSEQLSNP

HDAC6 = target: T2, HDAC6 (Homo sapiens, UniProt Q9UBN7); assay: HDAC enzyme-based fluorogenic assay, HDAC6; format: biochemical; conditions: for HDAC6 inhibitor rate: final concentration of 2 μM, preliminary screen; for Selectivity Index HDAC1/HDAC6 / Selectivity Index HDAC2/HDAC6 / Selectivity Index HDAC3/HDAC6 / Selectivity Index HDAC8/HDAC6 / Selectivity Index HDAC11/HDAC6: ratio of IC50 values
T2 sequence (Q9UBN7 1-1215): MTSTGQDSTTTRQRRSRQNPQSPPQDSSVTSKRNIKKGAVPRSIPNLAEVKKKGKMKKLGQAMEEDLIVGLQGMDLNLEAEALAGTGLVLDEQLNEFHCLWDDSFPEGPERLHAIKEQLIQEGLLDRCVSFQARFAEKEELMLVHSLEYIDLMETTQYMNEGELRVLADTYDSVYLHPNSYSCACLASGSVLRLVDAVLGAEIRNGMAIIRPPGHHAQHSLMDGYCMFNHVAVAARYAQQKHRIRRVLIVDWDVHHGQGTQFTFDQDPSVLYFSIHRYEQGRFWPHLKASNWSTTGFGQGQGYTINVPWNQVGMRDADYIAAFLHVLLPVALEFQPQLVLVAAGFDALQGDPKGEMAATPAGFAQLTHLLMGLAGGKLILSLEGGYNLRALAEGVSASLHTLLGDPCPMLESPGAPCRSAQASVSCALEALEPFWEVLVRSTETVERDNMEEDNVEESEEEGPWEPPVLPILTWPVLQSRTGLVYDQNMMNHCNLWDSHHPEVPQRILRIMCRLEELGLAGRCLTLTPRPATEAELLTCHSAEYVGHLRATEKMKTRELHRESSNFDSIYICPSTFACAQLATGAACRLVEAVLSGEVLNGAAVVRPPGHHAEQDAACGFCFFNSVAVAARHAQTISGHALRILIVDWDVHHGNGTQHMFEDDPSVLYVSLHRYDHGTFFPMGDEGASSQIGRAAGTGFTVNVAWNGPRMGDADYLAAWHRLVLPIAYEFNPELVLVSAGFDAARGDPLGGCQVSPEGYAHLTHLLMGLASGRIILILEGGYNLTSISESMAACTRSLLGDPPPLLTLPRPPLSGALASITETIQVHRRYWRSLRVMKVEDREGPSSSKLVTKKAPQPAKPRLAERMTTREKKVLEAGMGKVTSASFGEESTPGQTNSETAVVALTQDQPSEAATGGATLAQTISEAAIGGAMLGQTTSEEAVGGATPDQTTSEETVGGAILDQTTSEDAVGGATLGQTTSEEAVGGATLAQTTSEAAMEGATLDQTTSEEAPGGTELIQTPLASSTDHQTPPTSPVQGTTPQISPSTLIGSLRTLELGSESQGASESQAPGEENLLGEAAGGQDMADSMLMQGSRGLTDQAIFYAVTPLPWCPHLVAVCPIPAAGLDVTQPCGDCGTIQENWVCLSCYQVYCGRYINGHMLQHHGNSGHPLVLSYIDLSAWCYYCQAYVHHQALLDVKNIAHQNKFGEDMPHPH

HDAC8 = target: T3, HDAC8 (Homo sapiens, UniProt Q9BY41); assay: HDAC enzyme-based fluorogenic assay, HDAC8; format: biochemical
T3 sequence (Q9BY41 1-377): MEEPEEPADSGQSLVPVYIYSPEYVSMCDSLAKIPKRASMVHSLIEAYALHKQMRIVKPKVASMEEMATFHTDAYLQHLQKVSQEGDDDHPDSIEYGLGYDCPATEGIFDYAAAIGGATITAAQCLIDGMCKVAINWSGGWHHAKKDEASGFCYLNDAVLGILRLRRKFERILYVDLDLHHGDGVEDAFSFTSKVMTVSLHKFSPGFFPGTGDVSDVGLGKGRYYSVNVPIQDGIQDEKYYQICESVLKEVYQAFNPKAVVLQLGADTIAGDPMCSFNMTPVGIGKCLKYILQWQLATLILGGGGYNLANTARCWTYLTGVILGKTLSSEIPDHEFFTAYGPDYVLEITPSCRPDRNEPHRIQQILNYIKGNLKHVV

HDAC11 = target: T4, HDAC11 (Homo sapiens, UniProt Q96DB2); assay: HDAC enzyme-based fluorogenic assay, HDAC11; format: biochemical
T4 sequence (Q96DB2 1-347): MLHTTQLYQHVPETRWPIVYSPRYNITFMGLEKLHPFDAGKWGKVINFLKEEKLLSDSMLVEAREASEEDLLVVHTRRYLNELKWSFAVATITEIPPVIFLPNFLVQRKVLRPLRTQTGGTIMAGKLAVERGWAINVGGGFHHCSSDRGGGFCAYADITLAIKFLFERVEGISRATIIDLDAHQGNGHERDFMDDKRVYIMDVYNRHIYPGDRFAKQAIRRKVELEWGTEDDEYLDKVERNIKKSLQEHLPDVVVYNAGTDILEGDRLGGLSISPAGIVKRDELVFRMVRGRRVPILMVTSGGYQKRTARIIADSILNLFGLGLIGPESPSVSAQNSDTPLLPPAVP

[1] = Pharmacokinetic study in rats; format: in vivo, SD rats; conditions: for CL / Vz: SD rats, ig (oral) 50 mg/kg; for AUC(0-inf) / AUC(0-t) / Cmax / Tmax / Vd / clearance / half-life / bioavailability: both, Sprague-Dawley, rat, plasma; for bioavailability: oral

Row | SMILES | IC50 (MsEH) [nM] | IC50 (HDAC1) [nM] | IC50 (HDAC2) [nM] | IC50 (HDAC6) [nM] | HDAC6 inhibitor rate (HDAC6) | Selectivity Index HDAC1/HDAC6 (HDAC6) | Selectivity Index HDAC2/HDAC6 (HDAC6) | Selectivity Index HDAC3/HDAC6 (HDAC6) | Selectivity Index HDAC8/HDAC6 (HDAC6) | Selectivity Index HDAC11/HDAC6 (HDAC6) | IC50 (HDAC8) [nM] | IC50 (HDAC11) [nM] | CL [1] [L/h] | Vz [1] [L] | AUC(0-inf) ([1]; iv, 10 mg/kg) [µM·h] | AUC(0-t) ([1]; iv, 10 mg/kg) [µM·h] | Cmax ([1]; iv, 10 mg/kg) [µM] | Tmax ([1]; iv, 10 mg/kg) [h] | Vd ([1]; iv, 10 mg/kg) [L] | clearance ([1]; iv, 10 mg/kg) [mL/min] | other results
1 | O=C(CCCCCCNC(=O)[C@H]1CCCN(C(=O)c2ccc(NC(=O)Nc3cc(F)cc(F)c3)c(F)c2)C1)NO [Compound 28j, (S)-1-(4-(3-(3,5-Difluorophenyl)ureido)-3-fluorobenzoyl)-N-(7-(hydroxyamino)-7-oxoheptyl)piperidine-3-carboxamide] | 103 | 1030 | 1070 | 8 | > 91% and 98.92% | 129 | 134 | 327 | 9 | 132 | 72 | 1050 | 0.96 | 3.95 | 20 | 13.8 | 8.1 | 0.08 | 1.1 | 3 | half-life ([1]; iv, 10 mg/kg): 4.08 h; bioavailability ([1]; 50 mg/kg): 21.5%; AUC(0-inf) ([1]; po, 50 mg/kg): 18.7 µM·h; AUC(0-t) ([1]; po, 50 mg/kg): 14.8 µM·h; Cmax ([1]; po, 50 mg/kg): 10.1 µM; Tmax ([1]; po, 50 mg/kg): 0.17 h; half-life ([1]; po, 50 mg/kg): 2.84 h
2 | O=C(CCCCCCNC(=O)[C@H]1CCCN(C(=O)c2ccc(NC(=O)Nc3ccc(Cl)c(F)c3)c(F)c2)C1)NO [Compound 28g, (S)-1-(4-(3-(4-Chloro-3-fluorophenyl)ureido)-3-fluorobenzoyl)-N-(7-(hydroxyamino)-7-oxoheptyl)piperidine-3-carboxamide] | 46.8 | 1150 | 492 | 8 | > 91% and 99.78% | 144 | 62 | 160 | 8 | 58 | 62 | 464 | 0.82 | 4.20 | 21.2 | 12.3 | 7.87 | 0.08 | 1.28 | 2.67 | half-life ([1]; iv, 10 mg/kg): 5.43 h; bioavailability ([1]; 50 mg/kg): 24.4%; AUC(0-inf) ([1]; po, 50 mg/kg): 21.2 µM·h; AUC(0-t) ([1]; po, 50 mg/kg): 15 µM·h; Cmax ([1]; po, 50 mg/kg): 6.63 µM; Tmax ([1]; po, 50 mg/kg): 0.5 h; half-life ([1]; po, 50 mg/kg): 3.55 h
